Test results published in patent US6794386B2, “β-amino acid compounds as integrin antagonists” (Bayer Aktiengesellschaft, priority 2000, dated 2004).
Like-named read-outs stand apart in the source and are kept apart here.

Biological target: T1, VLA-4 (Homo sapiens, UniProt P05556+P13612)
T1 construct: host or cells: Jurkat clone E6-1
Assay: Adhesion of Jurkat cells to immobilized VCAM-1 (domains 1-3)
Format: cell-based
Design: scale not given here
Details: adhesion of CFSE-labeled Jurkat cells to recombinant human VCAM-1 (domains 1-3) coated plates, compounds as yielded by solid phase synthesis, purity about 40-90%
Method in brief: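 CFSE-labelled Jurkat E6-1 cells in Tris buffer pH 7.4 with 2 mM MnCl2 were added to wells coated with insect-cell-expressed human VCAM-1 domains 1-3 (0.5 μg/ml coating solution); labelled cells were incubated for 30 min at 37 °C with the VLA-4 inhibitor.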

T1 sequence (P13612 34-1032): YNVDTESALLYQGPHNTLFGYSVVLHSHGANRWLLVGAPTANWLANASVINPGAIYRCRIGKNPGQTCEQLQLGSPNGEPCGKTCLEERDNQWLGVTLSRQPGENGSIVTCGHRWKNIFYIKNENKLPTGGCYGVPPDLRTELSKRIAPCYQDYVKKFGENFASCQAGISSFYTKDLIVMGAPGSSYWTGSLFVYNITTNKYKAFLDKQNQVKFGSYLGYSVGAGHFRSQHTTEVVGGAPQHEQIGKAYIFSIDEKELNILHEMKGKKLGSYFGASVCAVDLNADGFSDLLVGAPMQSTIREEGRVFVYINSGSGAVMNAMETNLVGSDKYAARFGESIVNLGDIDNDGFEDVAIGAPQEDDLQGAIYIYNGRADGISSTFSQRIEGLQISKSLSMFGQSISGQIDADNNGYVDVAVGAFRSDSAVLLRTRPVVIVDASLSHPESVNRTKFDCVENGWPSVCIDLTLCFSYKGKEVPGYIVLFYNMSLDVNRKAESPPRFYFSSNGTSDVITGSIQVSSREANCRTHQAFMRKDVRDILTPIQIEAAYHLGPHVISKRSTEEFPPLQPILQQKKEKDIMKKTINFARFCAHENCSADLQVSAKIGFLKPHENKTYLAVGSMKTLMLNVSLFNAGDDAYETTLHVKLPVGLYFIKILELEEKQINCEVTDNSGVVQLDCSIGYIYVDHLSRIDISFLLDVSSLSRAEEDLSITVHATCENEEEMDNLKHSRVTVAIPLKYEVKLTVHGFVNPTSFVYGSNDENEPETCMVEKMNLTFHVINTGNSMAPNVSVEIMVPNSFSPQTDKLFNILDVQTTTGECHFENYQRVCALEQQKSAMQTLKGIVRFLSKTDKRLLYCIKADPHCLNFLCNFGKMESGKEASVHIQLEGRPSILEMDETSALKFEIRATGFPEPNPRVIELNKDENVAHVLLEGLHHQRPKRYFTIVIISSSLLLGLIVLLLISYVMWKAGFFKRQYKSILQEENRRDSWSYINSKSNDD
T1 sequence (P05556 21-798): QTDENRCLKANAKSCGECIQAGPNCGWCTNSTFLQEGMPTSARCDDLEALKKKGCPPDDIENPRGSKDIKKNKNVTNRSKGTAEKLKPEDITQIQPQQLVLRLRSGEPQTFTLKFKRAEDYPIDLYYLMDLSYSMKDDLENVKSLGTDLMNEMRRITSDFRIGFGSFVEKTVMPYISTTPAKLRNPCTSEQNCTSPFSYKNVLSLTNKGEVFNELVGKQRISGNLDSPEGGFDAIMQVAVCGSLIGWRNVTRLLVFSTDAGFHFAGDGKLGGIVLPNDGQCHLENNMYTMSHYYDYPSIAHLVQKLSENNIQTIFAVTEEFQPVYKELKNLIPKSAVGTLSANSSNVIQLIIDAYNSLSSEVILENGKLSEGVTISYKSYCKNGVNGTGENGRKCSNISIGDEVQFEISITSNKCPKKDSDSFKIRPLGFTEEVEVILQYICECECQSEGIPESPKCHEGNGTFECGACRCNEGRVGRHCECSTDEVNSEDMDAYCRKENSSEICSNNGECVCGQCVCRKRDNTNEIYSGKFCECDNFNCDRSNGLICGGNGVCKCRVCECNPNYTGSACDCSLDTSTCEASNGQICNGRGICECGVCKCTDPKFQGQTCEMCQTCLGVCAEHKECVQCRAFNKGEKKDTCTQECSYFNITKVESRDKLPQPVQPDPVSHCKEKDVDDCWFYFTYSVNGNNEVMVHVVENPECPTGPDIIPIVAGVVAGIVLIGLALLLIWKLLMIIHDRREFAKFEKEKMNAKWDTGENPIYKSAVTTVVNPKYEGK

| IC50 (read-out: IC50) [nM] | IC50 | Structure (SMILES) |
| --- | --- | --- |
| – | C-D | O=C(N[C@@H](Cc1ccc(-c2ccc(Cl)cc2Cl)cc1)C(=O)O)C1CCCN(C(=O)c2ccc3c(c2)OCO3)C1 (some centres unmarked) [Example 1.43] |
| 2000 to 10000 | – | O=C(N[C@@H](Cc1ccc(-c2cc(Cl)ccc2Cl)cc1)C(=O)O)C1CCCN(C(=O)c2cccc(Cl)c2)C1 (some centres unmarked) [Example 1.50] |
| – | A-B | CCCCN(C)c1ncnc(N2CCCC(C(=O)N[C@@H](Cc3ccc(-c4cc(Cl)ccc4Cl)cc3)C(=O)O)C2)c1F (some centres unmarked) [Example 2.40] |

The next lines start with the compound.

| Structure (SMILES) | IC50 (read-out: IC50) [nM] | IC50 |
| --- | --- | --- |
| COc1ccc(S(=O)(=O)N2CCCC(C(=O)N[C@@H](Cc3ccc(-c4ccc(Cl)cc4Cl)cc3)C(=O)O)C2)cc1OC (some centres unmarked) [Example 1.98] | 2000 to 10000 | – |
| Cc1ccc(S(=O)(=O)N2CCCC(C(=O)N[C@@H](Cc3ccc(NC(=O)N4CCN(C(c5ccccc5)c5ccccc5)CC4)cc3)C(=O)O)C2)cc1 (some centres unmarked) [Example 4.35] | 500 to 2000 | – |
